Results on one molecule are retold here after patent EP2251010A1, “Use of thiabendazole and derivatives thereof for the therapy of neurological conditions” (Sygnis Bioscience GmbH & Co. KG, priority 2009, dated 2010).

For this experiment, the system named is neural stem cells. Description: In vitro differentiation assay on adult neuronal stem cells (beta-III-tubulin promoter dual luciferase reporter). It is filed as cell-based, Wistar rats. The text has this:
The neuroregenerative effect of the compounds according to the present invention can be assayed in vitro by measuring their stimulation of the differentiation of neuronal stem cells. Therefore, adult neuronal stem cells have to be isolated and subsequently cultivated in a suitable culture medium. After several passages in vitro the stem cells have to be co-transfected with a DNA construct coding for two discriminable reporter proteins one of them under the control of a constitutive promoter and the other under the control of a beta-III-tubulin promoter. The beta-III-tubulin promoter is induced during the process of neuronal stem cell differentiation; therefore the reporter protein under the control of this promoter serves as a marker for the stem cell differentiation in such an in vitro dual reporter assay (Schneider et al., J Clin Investigation 2005; 115:2083-2098). The person skilled in the art knows several suitable constitutive promoters such as the SV40-promoter, the TK-promoter, or the CMV-promoter. As discriminable reporter proteins for such a dual reporter assay one can use discriminable luciferases such as firefly luciferase and Renilla luciferase. The transfected cells have to be incubated with the test compound and with positive and negative controls for normalization and background correction. As a positive control compound one can use retinoic acid (Guan et al., Cell Tissue Res. 2001; 305:171-176; Jacobs et al., Proc. Natl. Acad. Sci. USA 2006; 103:3902-3907), a suitable negative control is the sham treatment of the cells. The neroregenerative activity of the test compound is determined as the ratio of the signal of the beta-III-tubulin promoter controlled reporter versus the signal of the constitutively expressed reporter and is expressed as fold from the control. This assay is suitable to assess the neuroregenerative activity of thiabendazole and derivatives thereof, but also can be used to screen for other potential neuroregenerative compounds. Preferably, such a screening can be used to test compounds which are already known to be suitable as a medicament in terms of its toxicology, bioavailability, solubility, stability etc.
In vitro differentiation assay on adult neuronal stem cells with thiabendazole Neural stem cells were isolated from the subventricular zone of 4 week-old male Wistar rats as described (Maurer et al, Proteome Sci. 2003; 1:4). Cells were cultivated in Neurobasal medium (Invitrogen) supplemented with B27 (Invitrogen), 2mM L-glutamine, 100units/ml penicillin, 100units/ml streptomycin, 20ng/ml […] (EGF), 20ng/ml fibroblast growth factor-2 (FGF-2), and 2µg/ml heparin. Once a week the neural stem cells were passaged and experiments were performed after 4 weeks in vitro. For DNA transfection, the cells were dissociated and plated on poly-L-ornithin/laminin-coated 96-well plates at a density of 50.000 cells/well. Cotransfection with the pGL3-p-βIII-tubulin vector (100ng/well) and the pRL SV40 vector (100ng/well) was carried out according to the FuGene6 Transfection protocol (Roche). The pRL SV40 vector (Promega) served as an internal control vector.
To amplify the class III β-tubulin gene promoter (fragment -450 - +54), rat genomic DNA was used as a template for PCR (Dennis et al., Gene 2002;294:269-277). The amplified fragment was inserted into the Mlu I/Xho I site of the pGL3-Basic firefly luciferase reporter vector (Promega) to generate the pGL3-p-βIII-tubulin experimental vector.
After overnight incubation, the plate was decanted and given in 8-fold replicates fresh medium containing thiabendazole (Sigma) or vehicle. As a positive control for in vitro differentiation, stem cells were treated by adding 1 µM retinoic acid (Sigma) to the medium missing the mitogens.
After 48hrs, the cells were harvested to prepare the cellular extracts for luciferase assay following the directions of the manufacturer (Promega). […]
(In general: In a reporter assay the amount or activity of a reporter protein is the signal.)

As to `c1ccc2[nH]c(-c3cscn3)nc2c1` [thiabendazole, 2-(4-thiazolyl)-benzimidazole], the “differentiation of neural stem cells to neurons (relative induction of the class III β-tubulin gene promoter controlled luciferase signal)” value was “significantly stimulates the differentiation of neural stem cells to neurons” (0,2 to 100 µM final concentration, 48hrs, Fig. 1); “significantly stimulate the differentiation of neural stem cells to neurons” (final concentrations of 1 µM and 10 µM, Fig. 4).
